Data on 24 compounds can be found in patent US20250197359A1, “CANNABINOID RECEPTOR MODULATING COMPOUNDS” (The U.S.A., as Represented by the Secretary, Department of …, priority 2022, published 2025).

In the test the target is CB1 (UniProt P21554). In words: CB1 radioligand binding assay. Also on record: species or system human. On the procedure: The target compounds were evaluated in vitro at the human CB1 receptor, stably expressed into Chinese hamster ovary (CHO) cells by utilizing radioligand binding studies.
The binding constant for the synthesized compounds were determined by using radioligand binding assay in mouse brain membranes as well as the target compounds were evaluated in vitro at the human CB1 receptor, stably expressed into Chinese hamster ovary (CHO) cells as well as mouse brain membrane CB1. […]

Structures are written as SMILES. Read-outs that look alike come from different tables or passages of the source.

For `CCC(N/C(=N/S(=O)(=O)c1ccc(C(F)(F)F)cc1)N1CCC(c2ccccc2)C(c2ccc(Cl)cc2)=N1)C(N)=O` (single isomer, unassigned) [Compound 32a, (Z)-2-(3-(4-chlorophenyl)-4-phenyl-N′-((4-(trifluoromethyl)phenyl)sulfonyl)-1,4,5,6-tetrahydropyridazine-1-carboximidamido) butanamide], under “read-out: Ki (CB1)”, the Ki amounted to 785 nM. Same read-out and setting: next, `C/C(N)=N/C(=N/S(=O)(=O)c1ccc(C(F)(F)F)cc1)N1CCC(c2ccccc2)C(c2ccc(F)cc2)=N1` (stereo not drawn) [Compound 10zc, (Z)—N—((Z)-1-aminoethylidene)-3-(4-fluorophenyl)-4-phenyl-N′-((4-(trifluoromethyl)phenyl)sulfonyl)-5,6-dihydropyridazine-1 (4H)-carboximidamide]: 120 nM. The same measure, in the same setting: the result for `CS/C(N)=N\C(=N\S(=O)(=O)c1ccc(Cl)cc1)N1CCC(c2ccccc2)C(c2ccc(Cl)cc2)=N1` (stereo not drawn) [Compound 11a, methyl (Z)—N′—((Z)-(3-(4-chlorophenyl)-4-phenyl-5,6-dihydropyridazin-1 (4H)-yl)(((4-chlorophenyl)sulfonyl)imino)methyl)carbamimidothioate] reads 210 nM; that for `CS/C(N)=N\C(=N\S(=O)(=O)c1cccc(C(F)(F)F)c1)N1CCC(c2ccccc2)C(c2ccc(Cl)cc2)=N1` (stereo not drawn) [Compound 11c, methyl (Z)—N′—((Z)-(3-(4-chlorophenyl)-4-phenyl-5,6-dihydropyridazin-1 (4H)-yl)(((3-(trifluoromethyl)phenyl)sulfonyl)imino)methyl)carbamimidothioate], 234 nM; that for `CS/C(N)=N\C(=N\S(=O)(=O)c1ccc(OC(F)(F)F)cc1)N1CCC(c2ccccc2)C(c2ccc(Cl)cc2)=N1` (stereo not drawn) [Compound 11d, methyl (Z)—N′—((Z)-(3-(4-chlorophenyl)-4-phenyl-5,6-dihydropyridazin-1 (4H)-yl)(((4-(trifluoromethoxy)phenyl)sulfonyl)imino)methyl)carbamimidothioate], 151 nM.

With `CS/C(N)=N\C(=N\S(=O)(=O)c1ccc(C#N)cc1)N1CCC(c2ccccc2)C(c2ccc(Cl)cc2)=N1` (stereo not drawn) [Compound 11e, methyl (Z)—N′—((Z)-(3-(4-chlorophenyl)-4-phenyl-5,6-dihydropyridazin-1 (4H)-yl)(((4-cyanophenyl)sulfonyl)imino)methyl)carbamimidothioate], the inhibition constant (Ki) (read-out: Ki (CB1)) stood at 138 nM. Same read-out and setting: the result for `CS/C(N)=N\C(=N\S(=O)(=O)c1ccc2ccccc2c1)N1CCC(c2ccccc2)C(c2ccc(Cl)cc2)=N1` (stereo not drawn) [Compound 11f, methyl (Z)—N′—((Z)-(3-(4-chlorophenyl)-4-phenyl-5,6-dihydropyridazin-1 (4H)-yl)((naphthalen-2-ylsulfonyl)imino)methyl)carbamimidothioate] reads 590 nM; that for `CS/C(N)=N\C(=N\S(=O)(=O)c1ccccc1)N1CCC(c2ccccc2)C(c2ccc(Cl)cc2)=N1` (stereo not drawn) [Compound 11g, methyl (Z)—N′—((Z)-(3-(4-chlorophenyl)-4-phenyl-5,6-dihydropyridazin-1 (4H)-yl)((phenylsulfonyl)imino)methyl)carbamimidothioate], 1600 nM; that for `COc1ccc(S(=O)(=O)/N=C(/N=C(/N)SC)N2CCC(c3ccccc3)C(c3ccc(Cl)cc3)=N2)cc1` (stereo not drawn) [Compound 11h, methyl (Z)—N′—((Z)-(3-(4-chlorophenyl)-4-phenyl-5,6-dihydropyridazin-1 (4H)-yl)(((4-methoxyphenyl)sulfonyl)imino)methyl)carbamimidothioate], 1070 nM. With `C[Se]/C(N)=N\C(=N\S(=O)(=O)c1ccc(Cl)cc1)N1CCC(c2ccccc2)C(c2ccc(Cl)cc2)=N1` (stereo not drawn) [Compound 12a, methyl (Z)—N′—((Z)-(3-(4-chlorophenyl)-4-phenyl-5,6-dihydropyridazin-1 (4H)-yl)(((4-chlorophenyl)sulfonyl)imino)methyl)carbamimidoselenoate], the Ki (read-out: Ki (CB1) in nM) is 45 nM. Consider `C[Se]/C(N)=N\C(=N\S(=O)(=O)c1ccc(OC(F)(F)F)cc1)N1CCC(c2ccccc2)C(c2ccc(Cl)cc2)=N1` (stereo not drawn) [Compound 12d, methyl (Z)—N′—((Z)-(3-(4-chlorophenyl)-4-phenyl-5,6-dihydropyridazin-1 (4H)-yl)(((4-(trifluoromethoxy)phenyl)sulfonyl)imino)methyl)carbamimidoselenoate], for which, under “read-out: Ki (CB1)”, the Ki was 194 nM. Regarding `C[Se]/C(N)=N\C(=N\S(=O)(=O)c1ccc(C#N)cc1)N1CCC(c2ccccc2)C(c2ccc(Cl)cc2)=N1` (stereo not drawn) [Compound 12e, methyl (Z)—N′—((Z)-(3-(4-chlorophenyl)-4-phenyl-5,6-dihydropyridazin-1 (4H)-yl)(((4-cyanophenyl)sulfonyl)imino)methyl)carbamimidoselenoate], where the note is “read-out: Ki (CB1)”, the inhibitory constant (Ki) was 179 nM. Regarding `C[Se]/C(N)=N\C(=N\S(=O)(=O)c1ccc2ccccc2c1)N1CCC(c2ccccc2)C(c2ccc(Cl)cc2)=N1` (stereo not drawn) [Compound 12f, methyl (Z)—N′—((Z)-(3-(4-chlorophenyl)-4-phenyl-5,6-dihydropyridazin-1 (4H)-yl)((naphthalen-2-ylsulfonyl)imino)methyl)carbamimidoselenoate], the Ki (read-out: Ki (CB1)) is 317 nM. Regarding `C[Se]/C(N)=N\C(=N\S(=O)(=O)c1ccccc1)N1CCC(c2ccccc2)C(c2ccc(Cl)cc2)=N1` (stereo not drawn) [Compound 12g, methyl (Z)—N′—((Z)-(3-(4-chlorophenyl)-4-phenyl-5,6-dihydropyridazin-1 (4H)-yl)((phenylsulfonyl)imino)methyl)carbamimidoselenoate], the inhibition constant Ki (read-out: Ki (CB1)) was 2800 nM. The same measure, in the same setting: next, `COc1ccc(S(=O)(=O)/N=C(/N=C(/N)[Se]C)N2CCC(c3ccccc3)C(c3ccc(Cl)cc3)=N2)cc1` (stereo not drawn) [Compound 12h, methyl (Z)—N′—((Z)-(3-(4-chlorophenyl)-4-phenyl-5,6-dihydropyridazin-1 (4H)-yl)(((4-methoxyphenyl)sulfonyl)imino)methyl)carbamimidoselenoate]: 1100 nM; `C[Se]/C(N)=N/C(=N/S(=O)(=O)c1ccc(C(F)(F)F)cc1)N1CCC(c2ccccc2)C(c2ccc(F)cc2)=N1` (stereo not drawn) [Compound 12i, methyl (E)-N′—((Z)-(3-(4-fluorophenyl)-4-phenyl-5,6-dihydropyridazin-1 (4H)-yl)(((4-(trifluoromethyl)phenyl)sulfonyl)imino)methyl)carbamimidoselenoate]: 110 nM. As for `CC(=O)N/C(N)=N\C(=N\S(=O)(=O)c1ccc(C#N)cc1)N1CCC(c2ccccc2)C(c2ccc(Cl)cc2)=N1` (stereo not drawn) [Compound 13a, N—((Z)—N′—((Z)-(3-(4-chlorophenyl)-4-phenyl-5,6-dihydropyridazin-1 (4H)-yl)(((4-cyanophenyl)sulfonyl)imino)methyl)carbamimidoyl) acetamide], the inhibitory constant (Ki) (read-out: Ki (CB1)) was found to be 24.6 nM. With `CC(=O)N/C(N)=N\C(=N\S(=O)(=O)c1ccc(C(F)(F)F)cc1)N1CCC(c2ccccc2)C(c2ccc(Cl)cc2)=N1` (stereo not drawn) [Compound 14, N—((Z)—N′—((Z)-(3-(4-chlorophenyl)-4-phenyl-5,6-dihydropyridazin-1 (4H)-yl)(((4-(trifluoromethyl)phenyl)sulfonyl)imino)methyl)carbamimidoyl) acetamide], the Ki (read-out: Ki (CB1)) worked out at 5 nM. The same measure, in the same setting: the result for `O=S(=O)(/N=C(\N=C1/CCCN1)N1CCC(c2ccccc2)C(c2ccc(Cl)cc2)=N1)c1ccc(C(F)(F)F)cc1` (stereo not drawn) [Compound 17, (E)-3-(4-chlorophenyl)-4-phenyl-N—((E)-pyrrolidin-2-ylidene)-N′-((4-(trifluoromethyl)phenyl)sulfonyl)-5,6-dihydropyridazine-1 (4H)-carboximidamide] reads 117 nM. On the same count and under the same terms, the result for `CCN(CC)/C(N)=N/C(=N/S(=O)(=O)c1ccc(C(F)(F)F)cc1)N1CCC(c2ccccc2)C(c2ccc(Cl)cc2)=N1` (stereo not drawn) [Compound 18, (Z)—N—((E)-amino (diethylamino)methylene)-3-(4-chlorophenyl)-4-phenyl-N′-((4-(trifluoromethyl)phenyl)sulfonyl)-5,6-dihydropyridazine-1 (4H)-carboximidamide] reads 536 nM; that for `CC(C)(C)OC(=O)N/C(N)=N\C(=N\S(=O)(=O)c1ccc(C(F)(F)F)cc1)N1CCC(c2ccccc2)C(c2ccc(Cl)cc2)=N1` (stereo not drawn) [Compound 19], 383 nM.

On to `O=S(=O)(/N=C(\NC12CC3CC(CC(C3)C1)C2)N1CCC(c2ccccc2)C(c2ccc(Cl)cc2)=N1)c1ccc(C(F)(F)F)cc1` (stereo not drawn) [Compound 20, (E)-N-((3s,5s,7s)-adamantan-1-yl)-3-(4-chlorophenyl)-4-phenyl-N′-((4-(trifluoromethyl)phenyl)sulfonyl)-5,6-dihydropyridazine-1 (4H)-carboximidamide], for which the inhibition constant (Ki) (read-out: Ki (CB1)) amounted to 80.9 nM.

In the case of `O=C(O)CCCN/C(=N/S(=O)(=O)c1ccc(C(F)(F)F)cc1)N1CCC(c2ccccc2)C(c2ccc(Cl)cc2)=N1` (stereo not drawn) [Compound 21, (Z)-4-(3-(4-chlorophenyl)-4-phenyl-N′-((4-(trifluoromethyl)phenyl)sulfonyl)-1,4,5,6-tetrahydropyridazine-1-carboximidamido) butanoic acid], the Ki (read-out: Ki (CB1)) was 579 nM. `NC(=S)NN/C(=N/S(=O)(=O)c1ccc(C(F)(F)F)cc1)N1CCC(c2ccccc2)C(c2ccc(Cl)cc2)=N1` (stereo not drawn) [Compound 22, (Z)-2-((3-(4-chlorophenyl)-4-phenyl-5,6-dihydropyridazin-1 (4H)-yl)(((4-(trifluoromethyl)phenyl)sulfonyl)imino)methyl) hydrazine-1-carbothioamide]: where the note is “read-out: Ki (CB1)”, the inhibition constant (Ki) came to 575 nM.
